Source: patent US20260335347A1, “COMBINATION THERAPY WITH SPARSENTAN AND A SGLT2 INHIBITOR FOR TREATING KIDNEY DISEASES OR DISORDERS” (Travere Therapeutics, Inc., priority 2022, published 2026)
Where two headings read alike, the source gives them in different places.

Assays:
[1] = Open-label drug-drug interaction study in healthy adults: plasma dapagliflozin PK; format: in vivo, human; conditions: for AUC(0-inf) / AUC(0-t) / Cmax: human, plasma, 10 mg; for AUC(0-inf): n = 16; for AUC(0-t) / Cmax: n = 20
Method: (§1) Potential drug-drug interactions (DDI) of sparsentan with SGLT2 inhibitors are not known. The safety of administering sparsentan and dapagliflozin was evaluated in an open-label, drug-drug interaction study in healthy […]. This phase 1 study examined the effect of multiple doses of sparsentan on the pharmacokinetics (PK) of single-dose dapagliflozin and assessed the safety and tolerability of single-dose dapagliflozin when co-administered after multiple doses of sparsentan in healthy adults.
(§2) The open-label DDI study included Period 1 (Days 1-5; single dose of 10 mg dapagliflozin (“DAPA”) on Day 1, PK sampling pre-dose and up to 96 hours post-dose) and Period 2 (Days 5-14; 800 mg sparsentan (“SPAR”) once daily for 10 days with single 10 mg dose DAPA co-administered on Day 11, DAPA PK sampling pre-dose and up to 96 hours after Day 11 dosing). To avoid hypoglycemic events, subjects received an oral 20% glucose solution in water with the DAPA dose and every ~15 minutes up to 4 hours post-dose. Plasma concentrations and PK parameters of DAPA and SPAR were summarized. Subjects with evaluable data for both periods were included in an ANOVA mixed model analysis of DAPA AUC0-t, AUC0-inf, and Cmax following DAPA+SPAR vs DAPA alone. Treatment-emergent adverse events (TEAEs) were summarized.

[2] = Open-label drug-drug interaction study in healthy adults: safety and tolerability (TEAEs); format: in vivo, human; conditions: 10 mg DAPA, 800 mg SPAR once daily
Method: as §1, §2

[3] = tested on: patients with IgAN; test: PROTECT Phase 3 trial: change in proteinuria (UP/C) and eGFR, sparsentan vs irbesartan; format: in vivo, human; conditions: for mean reduction in proteinuria (UP/C) from baseline: after 36 weeks of treatment, first 280 patients, sparsentan 200 mg titrated to 400 mg once daily or irbesartan 150 mg titrated to 300 mg once daily, oral, p<0.0001
Method: (§3) The long-term nephroprotective potential of treatment with sparsentan was evaluated in PROTECT, a 114-week, randomized, global, multicenter, double-blind, parallel-group, active-control Phase 3 clinical study in patients with IgAN who have persistent overt proteinuria and remain at high risk of disease progression despite being on a stable dose (or doses) of an angiotensin-converting enzyme inhibitor (ACEI) and/or angiotensin receptor blocker (ARB) that is (are) a maximum tolerated dose that is at least one half of the maximum labeled dose (MLD) (according to approved labeling). The purpose of the study is to evaluate the potential benefit of sparsentan on kidney function by analyzing change in proteinuria (protein in urine) and estimated glomerular filtration rate (eGFR) as compared to current standard treatment.
404 patients aged≥18 years were enrolled in the study globally.
Enrolled patients were at high risk of progressing to renal failure. The trial enrolled patients with eGFR≥30 mL/min/1.73 m^2 and urinary protein to creatinine ratio (UP/C)≥1.0 g/g at screening.
Inclusion criteria included: age 18 years or older at screening; biopsy-proven primary IgAN; proteinuria (UP/C) of ≥1 g/day at screening; eGFR≥30 mL/min/1.73 m^2 at screening; currently on stable dose of ACEI and/or ARB therapy, for at least 12 weeks prior to screening (maximum tolerated dose and at least one-half of the maximum labeled dose); systolic BP≤150 mmHg and diastolic BP≤100 mmHg at screening; willing to undergo change in ACEI and/or ARB and anti-hypertensive medications; and agree to contraception.
(§4) All patients were randomized at a 1:1 ratio to receive sparsentan or the active control, irbesartan (an angiotensin receptor blocker), as a single oral morning dose. Sparsentan was administered at a dose of 200 mg once daily by mouth for 2 weeks and then titrated to 400 mg once daily as tolerated. Irbesartan was administered at a dose of 150 mg once daily by mouth for 2 weeks and then titrated to 300 mg once daily as tolerated.
Change in proteinuria (UP/C) from baseline (Day 1) at Week 36 in sparsentan-treated patients as compared to irbesartan-treated patients was assessed. The Week 36 UP/C was based on a 24-hour urine sample. Secondary outcome measures included eGFR over a 52-week period and a 104-week period following the initial acute effect of randomized therapy. […] Also assessed was eGFR over a 58-week and a 110-week (approximately 2-year) period following the initiation of randomized therapy (the analysis is from Day 1 to 58 weeks postrandomization or from Day 1 to 110 weeks postrandomization, eGFR total slope at 2 years). […]

[4] = tested on: patients with FSGS; test: DUPLEX trial: proportion of patients achieving UP/C ≤1.5 g/g and >40% reduction in UP/C (FPRE); format: in vivo, human; conditions: p=0.0094; for patients achieving FPRE (UP/C ≤1.5 g/g and >40 percent reduction in UP/C from Baseline): after 36 weeks of treatment, first approximately 190 patients
Method: (§5) The efficacy and safety of sparsentan were evaluated in DUPLEX, a randomized, double-blind, active-controlled, multicenter, global trial in patients with FSGS after exclusion of known secondary causes.
The trial enrolled patients with eGFR≥30 mL/min/1.73 m^2 and urinary protein to creatinine ratio (UP/C)>1.5 g/g. Randomization was stratified based on eGFR (≥30 to <60 mL/min/1.73 m^2 versus eGFR≥60 mL/min/1.73 m^2) and UP/C values (≤3.5 g/g versus >3.5 g/g for patients≥18 years of age, or ≤2 g/g versus >2 g/g for patients<18 years of age).
(§6) All patients were randomized at a 1:1 ratio to receive sparsentan or the active control, irbesartan. Sparsentan was administered at a dose of 400 mg once daily by mouth for 2 weeks and then titrated to 800 mg once daily as tolerated. Irbesartan was administered at a dose of 150 mg once daily by mouth for 2 weeks and then titrated to 300 mg once daily as tolerated. In patients weighing 50 kg or less, dosing was halved in both treatment arms (e.g., sparsentan administered at a dose of 200 mg once daily by mouth for 2 weeks and then titrated to 400 mg once daily as tolerated).
The proportion of patients achieving a UP/C≤1.5 g/g and a >40% reduction from baseline in UP/C was evaluated after patients completed 36 weeks of treatment.
In the DUPLEX Study, a total of 371 patients were randomized 1:1 to receive either sparsentan or irbesartan, the active control. The study protocol provided for an unblinded analysis to evaluate the interim efficacy endpoint—the proportion of patients achieving FPRE, which is a clinically meaningful endpoint defined as urine protein-to-creatinine ratio (UP/C)≤1.5 g/g and a >40 percent reduction in UP/C from Baseline, at Week 36—following the first approximately 190 patients reaching 36 weeks of treatment. After 36 weeks of treatment, 42.0 percent of patients receiving sparsentan achieved FPRE, compared to 26.0 percent of irbesartan-treated patients (p=0.0094).

[5] = tested on: patients with FSGS; test: DUPLEX trial: interim safety; format: in vivo, human
Method: as §5, §6

[6] = tested on: endothelin (A type) receptors ("ETA" receptors); conditions: selective dual-acting receptor antagonist; cited from earlier work
[7] = tested on: angiotensin II receptors (Type 1) ("AT1" receptors); conditions: selective dual-acting receptor antagonist; cited from earlier work
[8] = tested on: patients with IgAN; test: PROTECT Phase 3 trial: safety, interim analysis; format: in vivo, human; conditions: 400 mg once daily
Method: as §3, §4
The study provided for an analysis of topline results at 36 weeks, following the first 280 patients reaching 36 weeks of treatment.

[9] = tested on: patients with FSGS; conditions: Phase 2 clinical study; cited from earlier work

CCOc1ccc(Cc2cc([C@@H]3O[C@H](CO)[C@@H](O)[C@H](O)[C@H]3O)ccc2Cl)cc1 [DAPA, dapagliflozin]
mean peak and extent of DAPA exposure (Cmax and AUC) ([1]; 10 mg DAPA alone vs 10 mg DAPA+800 mg SPAR): similar
AUC(0-inf) ([1]; single 10 mg DAPA alone, Day 1, read-out: AUC0-inf, geometric LSMs (DAPA alone)): 534 ng·h/mL
AUC(0-t) ([1]; single 10 mg DAPA alone, Day 1, read-out: AUC0-t, geometric LSMs (DAPA alone)): 509 ng·h/mL
Cmax ([1]; single 10 mg DAPA alone, Day 1, read-out: Cmax, geometric LSMs (DAPA alone)): 73.9 ng/mL
AUC(0-inf) ([1]; single 10 mg DAPA co-administered on Day 11 with 800 mg SPAR once daily for 10 days, read-out: AUC0-inf, geometric LSMs (DAPA + SPAR)): 565 ng·h/mL
AUC(0-t) ([1]; single 10 mg DAPA co-administered on Day 11 with 800 mg SPAR once daily for 10 days, read-out: AUC0-t, geometric LSMs (DAPA + SPAR)): 526 ng·h/mL
Cmax ([1]; single 10 mg DAPA co-administered on Day 11 with 800 mg SPAR once daily for 10 days, read-out: Cmax, geometric LSMs (DAPA + SPAR)): 79.9 ng/mL
Cmax, GLSMR (DAPA + SPAR vs DAPA alone) ([1]; plasma dapagliflozin, 90% CI 96.0-121.8, intra-subject CV% 22.0): 108.2%
AUC0-t, GLSMR (DAPA + SPAR vs DAPA alone) ([1]; plasma dapagliflozin, 90% CI 99.9-107.0, intra-subject CV% 6.3): 103.4%
AUC0-inf, GLSMR (DAPA + SPAR vs DAPA alone) ([1]; plasma dapagliflozin, 90% CI 103.1-108.9, intra-subject CV% 4.4): 105.9%
tolerability of single-dose DAPA co-administered with multiple doses of SPAR [2]: appeared to be well tolerated

CCCCC1=NC2(CCCC2)C(=O)N1Cc1ccc(-c2ccccc2-c2nnn[nH]2)cc1 [irbesartan]
mean reduction in proteinuria (UP/C) from baseline [3]: 15.1%
patients achieving FPRE (UP/C ≤1.5 g/g and >40 percent reduction in UP/C from Baseline) [4]: 26.0%

CCCCC1=NC2(CCCC2)C(=O)N1Cc1ccc(-c2ccccc2S(=O)(=O)Nc2noc(C)c2C)c(COCC)c1 [sparsentan, 2-[4-[(2-butyl-4-oxo-1,3-diazaspiro[4.4]non-1-en-3-yl)methyl]-2-(ethoxymethyl)phenyl]-N-(4,5-dimethyl-1,2-oxazol-3-yl)benzenesulfonamide]
tolerability (preliminary review of interim safety results) ([5]; FSGS): generally well-tolerated
overall safety profiles between treatment groups ([5]; sparsentan vs active control treatment group): generally comparable between treatment groups
effect of multiple dosing of SPAR on single-dose DAPA PK ([1]; healthy adults, 800 mg SPAR once daily for 10 days): did not affect single-dose DAPA PK
affinity for endothelin (A type) receptors [6]: selective dual-acting receptor antagonist with affinity for endothelin (A type) receptors
affinity for angiotensin II receptors (Type 1) [7]: selective dual-acting receptor antagonist
reduction in proteinuria compared to the irbesartan-treated group ([3]; 36 weeks, sparsentan-treated vs irbesartan-treated group): greater than threefold reduction in proteinuria
mean reduction in proteinuria (UP/C) from baseline [3]: 49.8%
preliminary eGFR data at interim analysis ([3]; interim analysis, after two years of treatment): indicative of a potential clinically meaningful treatment effect
tolerability (preliminary interim results) [8]: generally well-tolerated
reduction of proteinuria in patients with FSGS [9]: shown to reduce proteinuria
proportion achieving composite endpoint, sparsentan arm vs irbesartan arm ([4]; Week 36, vs irbesartan): significantly higher
patients achieving FPRE (UP/C ≤1.5 g/g and >40 percent reduction in UP/C from Baseline) [4]: 42.0%
